Data set [1] deals with rats with middle cerebral artery occlusion (MCAO). Nature of the data set: Infarct volume measurement (H&E), MCAO rats (Example 2). Type of data set: in vivo, Sprague Dawley rat. The conditions noted are these: Day 63. The method, then: Euthanasia and post-mortem processing: Infarct Volume analysis. After the last behavioral assessment, rats were anesthetized deeply with ketamine/xylazine (100 mg/kg ketamine, 10 mg/kg xylazine, i.p.) and perfused transcardially with normal saline (with heparin 2 unit/ml) followed by 4% paraformaldehyde or formalin on Day 63. Brains were harvested and processed for histological assessment. A subset of 10 brains per group was processed for infarct volume measurement (H&E staining).
Infarct measurement: Brains were embedded in paraffin and 5 micron thick coronal sections were cut using a microtome. Sections were stained with hematoxylin and eosin (H&E), using standard methods. Seven coronal sections (+4.7, +2.7, +0.7, −1.3, −3.3, −5.3 and −7.3, compared to bregma respectively) from each brain were photographed by a digital camera, and the infarct area on each slice was determined by NIH Image (Image J) using the “indirect method” (area of the intact contralateral [left] hemisphere−area of intact regions of the ipsilateral [right] hemisphere) to correct for brain edema. Infarct areas were then summed among slices and multiplied by slice thickness (the distance between sections) to give total infarct volume, which was expressed as a percentage of intact contralateral hemispheric volume.

Data set [2] has the same test system. Nature of the data set: Hindlimb placing test, MCAO rats, dose escalation study (Example 17). Format: in vivo, Sprague Dawley rat. The source says: Limb Placing: Evaluated at Day −1 (pre-operation), Day 1, Day 7, Day 14, Day 21, Day 28, Day 30, Day 32, Day 42, Day 44, Day 46, Day 56, Day 58, Day 60. The limb placing tests were divided into forelimb and hindlimb tests. For the forelimb-placing test, the examiner held the rat close to a tabletop and scored the rat's ability to place the forelimb on the tabletop in response to whisker, visual, tactile, or proprioceptive stimulation. Similarly, for the hindlimb placing test, the examiner assessed the rat's ability to place the hindlimb on the tabletop in response to tactile and proprioceptive stimulation. Together, these tests reflect function and recovery in the sensorimotor systems (De Ryck et al., Brain Res 1992; 573:44-60). Separate sub-scores were obtained for each mode of sensory input and added to give total scores (for the forelimb placing test: 0=normal, 12=maximally impaired; for the hindlimb placing test: 0=normal; 6=maximally impaired). Scores were given in half-point increments (see below). Typically, there is a slow and steady recovery of limb placing behavior during the first month after stroke.
Hindlimb placing test (0-6): • tactile placing (dorsal (0-2), lateral (0-2)) • proprioceptive placing (0-2).
For each subtest, animals are scored as followed: • 0.0=immediate response • 0.5=response within 2 seconds • 1.0=response of 2-3 seconds • 1.5=response of >3 seconds • 2.0=no response
4-AP was evaluated for its ability to promote functional sensorimotor improvement following ischemic stroke in rats with stable motor deficits at times remote from their ischemic events. The animal model of ischemic stroke, i.e., the MCAO model, used in this example is the same as the animal model described in Example 2.
In the MCAO model recovery begins to plateau by 4 weeks after MCAO, at which time there are still measurable deficits in sensorimotor function. However, 4 weeks after MCAO there may still be slow continued endogenous recovery.
4-aminopyridine was dissolved in water for injection (WFI, Cellgro) and sterile filtered. Solutions of 0.25 mg/mL, 0.5 mg/mL and 1.0 mg/mL of 4-aminopyridine were delivered by gastric gavage at 2 mL/kg for final doses of 0.5 mg/kg, 1 mg/kg or 2.0 mg/kg respectively. Vehicle control treatment was WFI delivered at 2 mL/kg by gastric gavage. Starting on Day 56 after MCAO, animals received gastric gavage of solutions (2 mL/kg) approximately 12 hours apart. The vehicle control group was treated with water for all doses on Days 56-65. For the treated group, six doses of 4-aminopyridine at 0.5 mg/kg were delivered over Days 56-59, followed by six doses at 1.0 mg/kg over Days 59-62 and six doses at 2.0 mg/kg over Days 62-65. Animals in all groups were not treated during Days 66-70. p.o.=par oral. […]

For data set [3] the following is noted: typical; also printed as 94 ng/mL^−1; cited from earlier work.
A short description of data set [4]: Body weight (g) of MCAO rats (Example 2). As to conditions: individual animals and Mean (N=15), listed as 4-AP.

Where “and” joins values, the source holds several entries; their conditions need not be identical. Equal entries are not always repeated.

As to `Nc1ccncc1` [4-aminopyridine], the “Mean infarct volume (% of contralateral hemisphere)” value in data set [1] (Group 1 (sequence high, low, vehicle)) is given as 45.0 (±1.8) %; in data set [1] (Group 2 (sequence low, vehicle, high)), 41.4 (±2.3) %; in data set [1] (Group 3 (sequence vehicle, high, low)), 39.0 (±3.3) %. For the same compound, in data set [2] (0.5 mg/kg b.i.d. p.o., Day 59), the “Hind limb placing score compared to vehicle” value was “improved with the low dose but did not reach significance”. Moreover, the “Hind limb placing compared to vehicle” value in data set [2] (1 mg/kg b.i.d. p.o., Day 62, p<0.05) is recorded as “measureable improvement”. The “Hind limb function compared to vehicle” value in data set [2] (2 mg/kg b.i.d. p.o., Day 65, p<0.001) was “significant improvements”. Also, the “Hind limb score after treatment withdrawn for 5 days” value in data set [2] (Day 70, p<0.05) is listed as “remained greater than the vehicle treated group”. In addition, the “4-AP plasma concentrations obtained in clinical studies” value in data set [3] was under 1 µM. Also, the “Weight (g) Group 1, D30” value in data set [4] (Group 1, D30, treatment phase 1 (high-dose 4-AP)) is 425 g (2×) and 450 g and 435 g and 490 g and 544 g and 470 g and 512 g and 434 g and 482 g and 480 g and 360 g and 422 g and 496 g and 372 g. The “Weight (g) Group 1, D32” value in data set [4] (Group 1, D32, treatment phase 1 (high-dose 4-AP)) was 411 g and 441 g and 417 g and 470 g and 515 g and 454 g and 496 g and 422 g and 453 g and 461 g and 351 g and 404 g and 412 g and 477 g and 360 g. Further, in data set [4] (Group 1, D44, treatment phase 2 (low-dose 4-AP)), the “Weight (g) Group 1, D44” value is 455 g and 501 g and 447 g and 511 g and 566 g and 480 g and 545 g and 454 g and 502 g (2×) and 400 g and 440 g and 456 g and 494 g and 390 g. For the same compound, the “Weight (g) Group 1, D46” value in data set [4] (Group 1, D46, treatment phase 2 (low-dose 4-AP)) was 448 g and 490 g (2×) and 440 g and 494 g (2×) and 570 g and 488 g and 552 g and 457 g and 491 g and 386 g and 442 g and 446 g and 379 g. Moreover, the “Weight (g) Group 2, D30” value in data set [4] (Group 2, D30, treatment phase 1 (low-dose 4-AP)) was 474 g and 380 g (2×) and 414 g and 444 g and 410 g and 480 g (2×) and 540 g and 475 g and 512 g and 434 g and 420 g and 416 g and 431 g. Moreover, the “Weight (g) Group 2, D32” value in data set [4] (Group 2, D32, treatment phase 1 (low-dose 4-AP)) was 473 g and 369 g and 410 g and 426 g and 406 g and 455 g and 541 g and 467 g and 508 g and 476 g and 424 g and 403 g and 412 g and 374 g and 428 g. Also, the “Weight (g) Group 2, D58” value in data set [4] (Group 2, D58, treatment phase 3 (high-dose 4-AP)) is 530 g and 425 g and 461 g and 477 g and 455 g and 540 g and 635 g and 535 g and 570 g and 546 g and 499 g and 456 g and 470 g and 432 g and 483 g. Moreover, the “Weight (g) Group 2, D60” value in data set [4] (Group 2, D60, treatment phase 3 (high-dose 4-AP)) is 517 g and 410 g and 444 g (2×) and 460 g and 441 g and 519 g and 614 g and 508 g and 535 g and 530 g and 488 g and 447 g and 417 g and 471 g. Moreover, in data set [4] (Group 3, D44, treatment phase 2 (high-dose 4-AP)), the “Weight (g) Group 3, D44” value was 460 g and 461 g and 469 g and 451 g and 423 g and 462 g and 463 g (2×) and 532 g and 572 g and 538 g and 442 g and 445 g (2×) and 453 g. Also, the “Weight (g) Group 3, D46” value in data set [4] (Group 3, D46, treatment phase 2 (high-dose 4-AP)) is 440 g and 436 g (2×) and 455 g and 435 g (2×) and 402 g and 442 g and 502 g and 567 g and 497 g and 446 g and 430 g (2×) and 412 g. For the same compound, in data set [4] (Group 3, D58, treatment phase 3 (low-dose 4-AP)), the “Weight (g) Group 3, D58” value was 475 g and 486 g and 485 g and 467 g and 440 g and 472 g and 490 g and 550 g and 625 g and 573 g and 492 g and 462 g and 469 g and 476 g and 461 g. The “Weight (g) Group 3, D60” value in data set [4] (Group 3, D60, treatment phase 3 (low-dose 4-AP)) is 466 g and 479 g and 484 g (2×) and 463 g and 430 g and 465 g and 550 g and 613 g and 549 g and 468 g and 453 g and 456 g and 470 g and 447 g.

The values are drawn from patent US20160067232A1, “METHODS FOR TREATING A STROKE-RELATED SENSORIMOTOR IMPAIRMENT USING AMINOPYRIDINES” (Acorda Therapeutics, Inc., priority 2011, published 2016).
